Legend:
Staphylococcus aureus [1] = assay: Antibacterial activity against Staphylococcus aureus ATCC 29213 assessed as inhibition of growth visually by CLSI method; format: functional
Staphylococcus aureus [2] = assay: Antibacterial activity against methicillin-resistant Staphylococcus aureus NCTC 10442 assessed as inhibition of growth visually by CLSI method; format: functional
Staphylococcus aureus [3] = assay: Antibacterial activity against vancomycin intermediate susceptibility Staphylococcus aureus Mu50 assessed as inhibition of growth visually by CLSI method; format: functional
Enterococcus faecalis [4] = assay: Antibacterial activity against Enterococcus faecalis ATCC 29212 assessed as inhibition of growth visually by CLSI method; format: functional
Enterococcus faecalis [5] = assay: Antibacterial activity against vancomycin-resistant Enterococcus faecalis ATCC 51299 assessed as inhibition of growth visually by CLSI method; format: functional
Streptococcus pneumoniae = assay: Antibacterial activity against Streptococcus pneumoniae ATCC 49619 assessed as inhibition of growth visually by CLSI method; format: functional
Escherichia coli [6] = assay: Antibacterial activity against Escherichia coli ATCC 10418 assessed as inhibition of growth visually by CLSI method; format: functional
Clostridioides difficile [7] = assay: Antibacterial activity against Clostridioides difficile ATCC 700057 assessed as inhibition of growth visually preincubated for 2 to 4 hrs measured after 48 hrs by CLSI method; format: functional; settings: time hrs <=52
Clostridioides difficile [8] = assay: Antibacterial activity against Clostridioides difficile NSW 132 (RT027) assessed as inhibition of growth visually preincubated for 2 to 4 hrs measured after 48 hrs by CLSI method; format: functional; settings: time hrs <=52
Staphylococcus aureus [9] = assay: Antimicrobial activity against methicillin resistant Staphylococcus aureus ATCC 43300 assessed as growth inhibition incubated for 18 hrs; format: functional
Pseudomonas aeruginosa = assay: Antimicrobial activity against Pseudomonas aeruginosa ATCC 27853 assessed as growth inhibition incubated for 18 hrs; format: functional
Klebsiella pneumoniae = assay: Antimicrobial activity against multidrug-resistant Klebsiella pneumoniae ATCC 700603 assessed as growth inhibition incubated for 18 hrs; format: functional
Acinetobacter baumannii = assay: Antimicrobial activity against Acinetobacter baumannii ATCC 19606 assessed as growth inhibition incubated for 18 hrs; format: functional
Escherichia coli [10] = assay: Antimicrobial activity against Escherichia coli ATCC 25922 assessed as growth inhibition incubated for 18 hrs; format: functional
Candida albicans = assay: Antifungal activity against Candida albicans ATCC 90028 assessed as growth inhibition incubated for 36 hrs; format: functional; settings: 28A ATCC 90028
Cryptococcus neoformans = assay: Antifungal activity against Cryptococcus neoformans H99 ATCC 208821 assessed as growth inhibition incubated for 36 hrs; format: functional; settings: var. grubii H99 ATCC 208821
[11] = Cytotoxicity against human HEK-293 cells incubated for 23 hrs by CO-ADD method; format: cell-based, HEK293
[12] = Hemolytic activity in human RBC assessed as hemolysis incubated for 1 hr by CO-ADD method; format: ADME, cell-based, Erythrocyte; settings: red blood cells (erythrocytes)
[13] = Hemolytic activity in sheep RBC assessed as hemolysis at 5 microg/ml incubated for 2 hrs by CO-ADD method; format: ADME, cell-based, Ovis aries, Erythrocyte; settings: red blood cells (erythrocytes), at 5 µg/mL, read-out: Activity
[14] = Hemolytic activity in sheep RBC assessed as hemolysis at 50 microg/ml incubated for 2 hrs; format: ADME, cell-based, Ovis aries, Erythrocyte; settings: red blood cells (erythrocytes), at 50 µg/mL, read-out: Activity
[15] = Cytotoxicity against human HEK-293 cells assessed as maximal inhibition at <= 32 ug/ml incubated for 23 hrs by CO-ADD method; format: cell-based, HEK293; settings: dose <=32 µg/ml, read-out: Imax
[16] = Hemolytic activity in human RBC assessed as maximal hemolysis at <= 32 ug/ml incubated for 1 hr by CO-ADD method; format: cell-based, Erythrocyte; settings: red blood cells (erythrocytes), dose <=32 µg/ml, read-out: Activity

CC(C)CCOc1ccc(-c2ccc(OCc3cn(C[C@@H](CCCCN)NC(=O)[C@@H](CCCNC(=N)N)n4cc(CC5CCCCC5)nn4)nn3)cc2)cc1.Cl.Cl
MIC (Staphylococcus aureus [1]): 4 mg/L
MIC (Staphylococcus aureus [2]): 4 mg/L
MIC (Staphylococcus aureus [3]): 4 mg/L
MIC (Enterococcus faecalis [4]): 8 mg/L
MIC (Enterococcus faecalis [5]): 16 mg/L
MIC (Streptococcus pneumoniae): 2 mg/L
MIC (Escherichia coli [6]): 32 mg/L
MIC (Clostridioides difficile [7]): 16 mg/L
MIC (Clostridioides difficile [8]): 8 mg/L
MIC80 (Staphylococcus aureus [9]): ≤ 0.25 mg/L
MIC80 (Pseudomonas aeruginosa): 8 mg/L
MIC80 (Klebsiella pneumoniae): 32 mg/L
MIC80 (Acinetobacter baumannii): 32 mg/L
MIC80 (Escherichia coli [10]): 8 mg/L
MIC80 (Candida albicans): 1 mg/L
MIC80 (Cryptococcus neoformans): > 32 mg/L
CC50 at 23 h [11]: > 32 mg/L
HC50 at 1 h [12]: 9.8 µg/mL
hemolysis at 2 h, 5 microg/ml [13]: 1.4%
hemolysis at 2 h, 50 microg/ml [14]: 57.2%
Emax at 23 h [15]: 25%
hemolysis at 1 h [16]: 94%

From ChEMBL document CHEMBL4715932, “Positional Isomers of Biphenyl Antimicrobial Peptidomimetic Amphiphiles” (ACS Med Chem Lett, 2021)
